# Reference: patent publication US10899750B2, “Methods and compositions of small molecule modulators of hepatocyte growth factor (scatter factor) activity” (ANGION BIOMEDICA CORP., priority 2008, dated 2021)
# Experiments:
# HUVECs = assay: Nitric oxide production in endothelial cells (DAF2-DA fluorescence); assay type: cell-based, human; settings: 24 hours incubation
# Description: c. HGF and compounds of the invention stimulate nitric oxide production in endothelial cells. HUVECs are incubated with either vehicle, HGF/SF, instant compounds, or SNAP for 24 hours, loaded with the nitric oxide-sensitive fluorescence indicator DAF2-DA and imaged under a laser scanning confocal microscope.
# MDCK cells = assay: Anti-apoptotic activity in cultured cell lines (adriamycin-induced apoptosis); assay type: cell-based
# Source text: a. HGF/SF and instant compounds have significant anti-apoptotic activity in cultured cell lines.
# [1] = tested on: NIH-3T3 cells transfected with the gene for the c-met receptor; assay: Protection from apoptosis in NIH-3T3 cells transfected with c-met receptor (MTT assay); assay type: cell-based
# Source text: b. Protection from apoptosis in NIH-3T3 cells transfected with c-met receptor.
# [2] = tested on: LX2 cells (an immortalized human hepatic stellate cell line); assay: Antifibrotic activity in hepatic stellate cells; assay type: cell-based; settings: serum starved (activated) LX2 cells
# Source text: a. Antifibrotic Activity in Hepatic Stellate Cells.
Molecule,Nitric oxide production (DAF2-DA fluorescence) (HUVECs),Adriamycin-induced apoptosis (MDCK cells; MDCK cells),"Cell viability (MDCK cells; pretreatment, HUVEC and MDCK cell lines)",Protection from adriamycin-induced apoptosis (MTT assay) [1],Collagen I mRNA expression [2]
"CC(=O)N[C@@H](C(=O)O)C(C)(C)SN=O (racemic) [SNAP, reference compound]",significant increase in fluorescence,–,–,–,–
HGF/SF: pleiotropic growth factor; heparin-binding heterodimeric protein composed of a 62 kDa α chain and a 34 kDa β chain,significant increase in fluorescence,significantly block adriamycin-induced apoptosis,significantly improves the cell viability,protect the cells from adriamycin-induced apoptosis,decrease in collagen I mRNA expression
